Data from patent US8629101B2, “Cholesterol derivatives of inhibitors of viral fusion” (priority 2007, dated 2014).
Where a SMILES comes first, the peptide text is derived from it. The star is where a group is joined. X1 = CC(C)CCC[C@@H](C)[C@H]1CC[C@H]2[C@@H]3CC=C4C[C@@H](OC(=O)C*)CC[C@]4(C)[C@H]3CC[C@]12C

Columns and labels:
HIV-1 (HXB2) = format: cell-based; conditions: read-out: IC50 antiviral activity
Source text: The antiviral activity of a peptide from the membrane-proximal external region (MPER) of gp41, which also includes the epitope of monoclonal antibody (MAb) 2F5, […] […] Accordingly, when peptide […] […] Moreover, the nature of the lipid was important, since a bis-Lys(N^ε-Palmitoyl) group was ineffective. Details of the assay used can be found in Joyce et al, J. Biol Chem., 2002, 277, 45811-45820.

HIV-HXB2 [1] = tested on: HIV-HXB2
HIV-HXB2 [2] = test: pre-incubation of peptide with P4-2/R5 cells with/without wash, then HIV-HXB2 infection; format: cell-based, HIV-1; conditions: with wash versus no wash
Protocol: After 48 h, the antiviral activities of the residual peptides that survive the washing steps were determined by measuring the f3-galactosidase activities within lysed cells as described above.

multiple HIV-1 isolates = test: single-cycle infectivity assay across the panel of viral strains; conditions: variety of viral strains
Protocol: HIV-1 Infectivity Assay (31). P4-2/R5 cells (HeLa cells expressing endogenous CXCR4 and stably transfected to express CD4 and CCR5 which also contain an integrated β-galactosidase reporter gene under control of an HIV LTR promoter) maintained in phenol red-free Dulbecco's modified Eagle's medium, 10% fetal bovine serum, 1% penicillin/streptomycin were seeded in 96-well plates at 2.5×10^3 cells/well and infected the following day with the HXB2 strain (and a variety of other strains in some cases) of HIV-1 (Advanced Biotechnology Inc., Bethesda, Md.) in the presence of titrations of the test inhibitory peptides at 37° C. After 48 h incubation with both virus and inhibitory peptides, cells were lysed and β-galactosidase was detected using Gal Screen™ chemiluminescent substrate (Applied Biosystems, Foster City, Calif.) according to the manufacturer's instructions. Data were obtained using a Dynex luminometer and IC50 values were calculated by KaleidaGraph.

[3] = pharmacokinetics after intraperitoneal injection into the mouse; format: in vivo; conditions: ip
Source text: Effect of lipid derivatization on the pharmacokinetic properties of C34-chol. In addition to providing improved antiviral potency, derivatization with cholesterol also extends the half-life of the peptide in vivo.

## CC(=O)N[C@@H](CCC(=O)O)C(=O)N[C@@H](CC(C)C)C(=O)N[C@@H](CC(C)C)C(=O)N[C@@H](CCC(=O)O)C(=O)N[C@@H](CC(C)C)C(=O)N[C@@H](CC(=O)O)C(=O)N[C@@H](CCCCN)C(=O)N[C@@H](Cc1c[nH]c2ccccc12)C(=O)N[C@@H](C)C(=O)N[C@@H](CO)C(=O)N[C@@H](CC(C)C)C(=O)N[C@@H](Cc1c[nH]c2ccccc12)C(=O)N[C@@H](CSCC(=O)O[C@H]1CC[C@@]2(C)C(=CC[C@H]3[C@@H]4CC[C@H]([C@H](C)CCCC(C)C)[C@@]4(C)CC[C@@H]32)C1)C(N)=O (Ac-ELLELDKWASLWC(X1)-NH2)
HIV-1 (HXB2)
  IC50: 5.85 µM

## CC[C@H](C)[C@H](NC(=O)[C@H](CC(C)C)NC(=O)[C@H](CO)NC(=O)[C@H](Cc1c[nH]cn1)NC(=O)[C@@H](NC(=O)[C@H](CC(C)C)NC(=O)[C@H](CO)NC(=O)[C@@H](NC(=O)[C@H](Cc1ccc(O)cc1)NC(=O)[C@H](CC(N)=O)NC(=O)[C@H](CC(N)=O)NC(=O)[C@@H](NC(=O)[C@H](CCC(=O)O)NC(=O)[C@H](CCCNC(=N)N)NC(=O)[C@H](CC(=O)O)NC(=O)[C@H](Cc1c[nH]c2ccccc12)NC(=O)[C@H](CCC(=O)O)NC(=O)[C@H](CCSC)NC(=O)[C@H](Cc1c[nH]c2ccccc12)NC(=O)CNC(=O)[C@H](CO)NC(=O)CNC(=O)[C@H](CSCC(=O)O[C@H]1CC[C@@]2(C)C(=CC[C@H]3[C@@H]4CC[C@H]([C@H](C)CCCC(C)C)[C@@]4(C)CC[C@@H]32)C1)NC(C)=O)[C@@H](C)CC)[C@@H](C)O)[C@@H](C)CC)C(=O)N[C@@H](CCC(=O)O)C(=O)N[C@@H](CCC(=O)O)C(=O)N[C@@H](CO)C(=O)N[C@@H](CCC(N)=O)C(=O)N[C@@H](CC(N)=O)C(=O)N[C@@H](CCC(N)=O)C(=O)N[C@@H](CCC(N)=O)C(=O)N[C@@H](CCC(=O)O)C(=O)N[C@@H](CCCCN)C(=O)N[C@@H](CC(N)=O)C(=O)N[C@@H](CCC(=O)O)C(=O)N[C@@H](CCC(N)=O)C(=O)N[C@@H](CCC(=O)O)C(=O)N[C@@H](CC(C)C)C(=O)N[C@@H](CC(C)C)C(N)=O [Chol-C34]
HIV-HXB2 [1]; cholesterol at the N-terminus
  decrease of antiviral activity compared to underivatized C34: 50 fold

## CC[C@H](C)[C@H](NC(=O)[C@H](CC(C)C)NC(=O)[C@H](CO)NC(=O)[C@H](Cc1c[nH]cn1)NC(=O)[C@@H](NC(=O)[C@H](CC(C)C)NC(=O)[C@H](CO)NC(=O)[C@@H](NC(=O)[C@H](Cc1ccc(O)cc1)NC(=O)[C@H](CC(N)=O)NC(=O)[C@H](CC(N)=O)NC(=O)[C@@H](NC(=O)[C@H](CCC(=O)O)NC(=O)[C@H](CCCNC(=N)N)NC(=O)[C@H](CC(=O)O)NC(=O)[C@H](Cc1c[nH]c2ccccc12)NC(=O)[C@H](CCC(=O)O)NC(=O)[C@H](CCSC)NC(=O)[C@H](Cc1c[nH]c2ccccc12)NC(C)=O)[C@@H](C)CC)[C@@H](C)O)[C@@H](C)CC)C(=O)N[C@@H](CCC(=O)O)C(=O)N[C@@H](CCC(=O)O)C(=O)N[C@@H](CO)C(=O)N[C@@H](CCC(N)=O)C(=O)N[C@@H](CC(N)=O)C(=O)N[C@@H](CCC(N)=O)C(=O)N[C@@H](CCC(N)=O)C(=O)N[C@@H](CCC(=O)O)C(=O)N[C@@H](CCCCN)C(=O)N[C@@H](CC(N)=O)C(=O)N[C@@H](CCC(=O)O)C(=O)N[C@@H](CCC(N)=O)C(=O)N[C@@H](CCC(=O)O)C(=O)N[C@@H](CC(C)C)C(=O)N[C@@H](CC(C)C)C(=O)NCC(=O)N[C@@H](CO)C(=O)NCC(=O)N[C@@H](CSCC(=O)O[C@H]1CC[C@@]2(C)C(=CC[C@H]3[C@@H]4CC[C@H]([C@H](C)CCCC(C)C)[C@@]4(C)CC[C@@H]32)C1)C(N)=O [Peptide C34-Chol]
HIV-HXB2 [2]
  IC50 fold change: 7 fold
Multiple HIV-1 isolates
  breadth of antiviral response: comparable IC50 in all strains
  potency relative to underivatized or cys-alkylated C34 across the whole panel: ~50 fold
HIV-HXB2 [1]
  increase of antiviral potency over C34 and C34-Aceta: 50 fold
  potency relative to enfuvirtide/FUZEON: ~100 fold
[3]; […], 24 h, versus IC50 7 pM
  plasma concentration at 24 h as multiple of the measured IC50: > 500 fold
[3]; plasma, 3.5 mg/kg
  AUC(0-t): 11.5 µM·h
  Cmax: 3100 nM
  Tmax: 4 h
[3]; plasma, 3.5 mg/kg, read-out: CI/F
  CL/F: 0.6 mL/min/kg
[3]; plasma, intraperitoneal, 3.5 mg/kg, 24 h, read-out: plasma concentration still detectable after 24 h
  level at time molar at 24 h: ~60 nM

## CCCCCCCCCCCCCCCC(=O)NCCCC[C@H](NC(=O)CNC(=O)[C@H](CO)NC(=O)CNC(=O)[C@H](CC(C)C)NC(=O)[C@H](CC(C)C)NC(=O)[C@H](CCC(=O)O)NC(=O)[C@H](CCC(N)=O)NC(=O)[C@H](CCC(=O)O)NC(=O)[C@H](CC(N)=O)NC(=O)[C@H](CCCCN)NC(=O)[C@H](CCC(=O)O)NC(=O)[C@H](CCC(N)=O)NC(=O)[C@H](CCC(N)=O)NC(=O)[C@H](CC(N)=O)NC(=O)[C@H](CCC(N)=O)NC(=O)[C@H](CO)NC(=O)[C@H](CCC(=O)O)NC(=O)[C@H](CCC(=O)O)NC(=O)[C@@H](NC(=O)[C@H](CC(C)C)NC(=O)[C@H](CO)NC(=O)[C@H](Cc1c[nH]cn1)NC(=O)[C@@H](NC(=O)[C@H](CC(C)C)NC(=O)[C@H](CO)NC(=O)[C@@H](NC(=O)[C@H](Cc1ccc(O)cc1)NC(=O)[C@H](CC(N)=O)NC(=O)[C@H](CC(N)=O)NC(=O)[C@@H](NC(=O)[C@H](CCC(=O)O)NC(=O)[C@H](CCCNC(=N)N)NC(=O)[C@H](CC(=O)O)NC(=O)[C@H](Cc1c[nH]c2ccccc12)NC(=O)[C@H](CCC(=O)O)NC(=O)[C@H](CCSC)NC(=O)[C@H](Cc1c[nH]c2ccccc12)NC(C)=O)[C@@H](C)CC)[C@@H](C)O)[C@@H](C)CC)[C@@H](C)CC)C(N)=O [Peptide C34-Pam]
HIV-HXB2 [1]
  antiviral activity relative to underivatized C34: comparable activity to underivatized C34

## enfuvirtide
HIV-HXB2 [1]; read-out: IC50 viral infectivity, mean ± SEM of three independent experiments (Table 2)
  IC50: 0.000692 ± 0.000245 µM
